Assay [1] has as its system differentiated human THP-1 macrophages. Briefly: IL-6 production by differentiated THP-1 macrophages in culture (ELISA). Type of assay: cell-based. The settings on record: differentiated THP-1 macrophages incubated 3 days with varying concentrations; IL-6 in culture supernatant by ELISA; FIG. 7. Here is the method: The effects of a sialidase inhibitor, N-acetyl-2,3-dehydro-2-deoxyneuraminic acid (ADDN), on the production of the inflammatory cytokine interleukin-6 (IL-6) by differentiated human THP-1 macrophages in culture was measured.
FIG. 7 illustrates that the inhibition of sialidase activity suppresses production of the pro-atherogenic cytokine IL-6 in differentiated THP-1 macrophages. Differentiated THP-1 macrophages were incubated for 3 days with the varying concentrations of the sialidase inhibitor ADDN. Levels of the cytokine IL-6 in samples of the cell culture supernatant were quantified by ELISA. Data are presented as the mean±standard deviation of triplicate experimental groups. (* denotes significant difference, P<0.001).
For orientation: In an ELISA, binding on a coated surface is turned into a signal by an enzyme label.

The subject of assay [2] is ApoE KO mice. The assay is described as follows: Serum glucose and serum/lipoprotein cholesterol in apoE KO mice treated with sialidase inhibitor. The format is in vivo, mouse. The settings on record: vs saline control, FIG. 8. Here is the method:
Control mice received daily injections of saline. Data reveal significant reductions in serum glucose levels, and total and LDL cholesterol. P<0.01.
Plasma was prepared from heparinized blood collected by cardiac puncture (Covey et al 2003). Serum was collected from blood using serum separators (Becton Dickenson). Serum was submitted to the Clinical Diagnostic Laboratory at the McMaster University Medical Centre for analyses of standard metabolic parameters including total cholesterol, LDL cholesterol and glucose. Lipoproteins from plasma were separated by size by fast protein liquid chromatography (FPLC) using an AKTA system (Amersham Biosciences, Inc.) with a Superose 6 HR 10/30 column, as described previously (Covey et al 2003). The total cholesterol content in each fraction was assayed using an enzymatic assay kit from Thermo DMA. Lipoproteins (VLDL, LDL and HDL) from human plasma were run as controls to calibrate the column.
The inhibitor, N-Acetyl-2,3-dehydro-2-deoxyneuraminic acid (ADDN), was obtained from Sigma Chemical Company (St. Louis, Mo.). ApoE KO mice were ˜6 weeks of age at the beginning of the study. The mice were randomized into 2 groups of 6. The control group received daily i.p injections of 0.9% saline (0.1 ml/day for […]). The experimental group received daily i.p. injections of 0.9% saline (0.1 ml per day) containing either 0.1 or 0.4 ug ADDN for 7 days. Serum was collected on day 7 and serum glucose, total cholesterol and LDL levels were measured.

The subject of assay [3] is ApoE KO mice. Briefly: Atherosclerosis (aortic sinus lesion area and volume) in apoE KO mice treated with sialidase inhibitor. The format is in vivo, mouse. The settings on record: male apoE KO mice aged 7 months, mini-osmotic pump 1.5 micro-g/day for 6 weeks, vs saline. As to the method:
FIG. 9 illustrate a morphometric evaluation of atherosclerotic lesion area (A) and volume (B) in the aortic sinus of male ApoE−/− mice treated for 6 weeks with the sialic acid inhibitor ADDN (N-Acetyl-2,3-dehydro-2-deoxyneuraminic acid). Mice aged 7 months were treated for 6 weeks with either saline or the sialic acid inhibitor ADDN. (n=8 in each case). A third group of mice was euthanized at the beginning of the experiment so that the level of atherosclerosis at the time that treatment was initiated could be measured (Base, n=9). Atherosclerotic lesion cross sectional areas in the aortic root (A) and lesion volumes (B) were measured. Values are the averages ±standard error of the mean. Lesion progression was reduced in ADDN-treated mice compared to saline controls. […]
For diet-induced atherosclerosis, mice were fed (beginning four weeks after transplantation) with a high fat, Western-type diet (Covey et al 2003) obtained from Dyets, Inc. (Bethlehem Pa.). […] Atherosclerotic plaque cross sectional area was measured by morphometry using Axiovision software (Carl Zeiss Canada, Inc). A total of eight sections lying at 0.1 mm intervals along the aortic sinus were analyzed for each mouse. […] The volume of atherosclerotic plaque was therefore calculated as the sum of the volumes determined for each 0.1 mm portion of the aortic sinus. […]

Setting [4] is: daily i.p. 0.1 or 0.4 ug for 7 days.

As for `CC(=O)N[C@H]1[C@H]([C@H](O)[C@H](O)CO)OC(C(=O)O)=C[C@@H]1O` [ADDN, N-Acetyl-2,3-dehydro-2-deoxyneuraminic acid], the “production of the inflammatory cytokine IL-6” value in assay [1] is given as “reduced production of IL-6”. Besides, in the assay with ApoE KO mice [2] (setting [4]), the LDL cholesterol entry is listed as “significantly less”, the serum glucose entry is on record as “significantly decreased” and the serum total cholesterol result is given as “significantly less”. Besides, the HDL cholesterol entry in the assay with ApoE KO mice [2] (daily i.p. injections) was “significantly less”. Further, the “growth of atherosclerotic plaque cross sectional area from baseline” value in the assay on ApoE KO mice [3] (aortic root, FIG. 9A) is on record as “substantially inhibited”. Further, in the assay on ApoE KO mice [3] (aortic sinus, FIG. 9B), the “growth of atherosclerotic plaque volume from baseline” value was “substantially inhibited”.

The record behind these values is US20070074300A1, “Sialidase inhibitors for the treatment of cardiovascular disease” (priority 2005, published 2007).
